Measured values as given in patent publication US10280138B2, “Nitric oxide donating derivatives of fluprostenol” (NICOX S.A., priority 2015, dated 2019).

Tested on: transiently ocular hypertensive New Zealand white rabbits
Experiment: Intraocular pressure (IOP) lowering activity in hypertonic saline-induced IOP increase in rabbits
Assay type: in vivo
Details: for Mean IOP changes vs vehicle and baseline, 60 min: 60 min after topical application, hypertonic saline 5% intravitreal; for Mean IOP changes vs vehicle and baseline, 60 min / IOP60 min reduction vs vehicle / Mean IOP changes vs vehicle and baseline, 90 min / Mean IOP changes vs vehicle and baseline, 180 min / Mean IOP changes vs vehicle and baseline, 300 min / Mean IOP changes vs vehicle and baseline, 120 min / Mean IOP changes vs vehicle and baseline, 240 min / Maximal IOP reduc.: dose (%); for IOP60 min reduction vs vehicle / Delta60 min vs parent drug: 60 minutes after topical administration; for Delta60 min vs parent drug: parent drug bimatoprost (A-1, B-1) or fluprostenol isopropyl ester (Comp. 9-13); for Mean IOP changes vs vehicle and baseline, 90 min: 90 min after topical application; for Mean IOP changes vs vehicle and baseline, 90 min / Mean IOP changes vs vehicle and baseline, 180 min / Mean IOP changes vs vehicle and baseline, 300 min: treatment group B (pneumatonometer); for Mean IOP changes vs vehicle and baseline, 180 min: 180 min after topical application; for Mean IOP changes vs vehicle and baseline, 300 min: 300 min after topical application; for Mean IOP changes vs vehicle and baseline, 120 min: 120 min after topical application; for Mean IOP changes vs vehicle and baseline, 120 min / Mean IOP changes vs vehicle and baseline, 240 min: treatment group A (Tono-Pen VET); for Mean IOP changes vs vehicle and baseline, 240 min: 240 min after topical application; for Maximal IOP reduc.: topical application
Text: Intraocular Pressure (IOP) Lowering Activity in Hypertonic Saline-Induced IOP Increase in Rabbits
Compounds (9), (10), (11), (12) and (13) of the invention and compounds (A-1) and (B-1) disclosed in WO 2009/136281 were directly compared with fluprostenol isopropyl ester and bimatoprost, in the same model of ocular hypertensive rabbit. The hypotensive effects of the two groups of compounds were independently evaluated at different time points and in different sets of hypertensive rabbits.
Test compounds and dose (equimolar to the correspondent parent drug)
Vehicle: buffered aqueous solution pH 6, polyoxyl 40 hydrogenated castor oil 5 mg/ml, tromethamine 10 mg/ml, boric acid 6 mg/ml, mannitol 40 mg/ml, edetate disodium 0.5 mg/ml and benzalkonium chloride 0.15 mg/mL
Male New Zealand white rabbits weighing 2.0-2.5 kg were used in the experiments. The transient increase in IOP was induced by the injection of 0.1 ml of hypertonic saline solution (5%) into the vitreous of both eyes.
Intraocular pressure (IOP) was determined using a Tono-Pen VET prior to hypertonic saline injection (basal) and at 30, 60, 120 and 240 min thereafter. Vehicle or tested compound dissolved in the vehicle was instilled immediately after the injection of hypertonic saline into the conjunctival pocket. Eyes were randomly assigned to different treatment groups.
One drop of 0.4% oxybuprocaine hydrochloride (Novesine, Sandoz) was instilled in each eye immediately before each set of pressure measurements.
Treatment Groups B (Prior Art Compounds)
Vehicle: tween 80 0.5%, 0.2 mg/ml benzalkonium chloride, 0.3% DMSO in PBS pH 6.7
Intraocular pressure (IOP) was determined using a pneumatonometer prior to hypertonic saline injection (basal) and at 30, 60, 90, 180 and 300 min thereafter. Vehicle or tested compound dissolved in the vehicle was instilled immediately after the injection of hypertonic saline into the conjunctival pocket. Eyes were randomly assigned to different treatment groups.
The intraocular pressure values measured following topical application of the tested compounds are reported in Table 1 expressed as mean IOP change in treated eyes versus vehicle-treated eyes at same time point and baseline; Table 1 also reports the maximal IOP reduction of the tested compounds expressed in percentage.

SMILES | Mean IOP changes vs vehicle and baseline, 60 min [mmHg] | IOP60 min reduction vs vehicle [%] | Delta60 min vs parent drug | Mean IOP changes vs vehicle and baseline, 90 min [mmHg] | Mean IOP changes vs vehicle and baseline, 180 min [mmHg] | Mean IOP changes vs vehicle and baseline, 300 min [mmHg] | Mean IOP changes vs vehicle and baseline, 120 min [mmHg] | Mean IOP changes vs vehicle and baseline, 240 min [mmHg] | Maximal IOP reduc. [%]
CCNC(=O)CCC/C=C\C[C@@H]1[C@@H](/C=C/[C@@H](O)CCc2ccccc2)[C@H](O)C[C@@H]1O [Bimatoprost, reference compound] | −1.8 ± 2.4 | 1 | 0 mmHg | −2.7 ± 2.0 | 0.8 ± 1.5 | 0.3 ± 2.6 | – | – | –
CC(C)OC(=O)CCC/C=C\C[C@@H]1[C@@H](/C=C/[C@H](COc2cccc(C(F)(F)F)c2)OC(=O)CCCCCO[N+](=O)[O-])[C@H](O)C[C@@H]1O [Comp. (9)] | −6.6 ± 0.9 | 20 | −6.5 mmHg | – | – | – | −8.2 ± 1.2 | −2.0 ± 0.7 | 23 ± 3
CC(C)OC(=O)CCC/C=C\C[C@@H]1[C@@H](/C=C/[C@H](COc2cccc(C(F)(F)F)c2)OC(=O)CCCC(CO[N+](=O)[O-])O[N+](=O)[O-])[C@H](O)C[C@@H]1O (stereo partly drawn) [Comp. (10), (Z)-isopropyl 7-((1R,2R,3R,5S)-2-((3R,E)-3-(5,6-bis(nitrooxy)hexanoyloxy)-4-(3-(trifluoromethyl)phenoxy)but-1-enyl)-3,5-dihydroxycyclopentyl)hept-5-enoate] | −9.2 ± 1.0 | 28 | −9.1 mmHg | – | – | – | −8.8 ± 1.2 | −1.2 ± 0.8 | 26 ± 3
CC(C)OC(=O)CCC/C=C\C[C@@H]1[C@@H](/C=C/[C@H](COc2cccc(C(F)(F)F)c2)OC(=O)COCCO[N+](=O)[O-])[C@H](O)C[C@@H]1O [Comp. (11), (Z)-isopropyl 7-((1R,2R,3R,5S)-3,5-dihydroxy-2-((R,E)-3-(2-(2-nitrooxyethoxy)acetoxy)-4-(3-(trifluoromethyl)phenoxy)but-1-enyl)cyclopentyl)hept-5-enoate] | −9.7 ± 0.8 | 32 | −9.6 mmHg | – | – | – | −7.4 ± 0.9 | −3.2 ± 0.6 | 37 ± 4
CC(C)OC(=O)CCC/C=C\C[C@@H]1[C@@H](/C=C/[C@H](COc2cccc(C(F)(F)F)c2)OC(=O)CCOCC(CO[N+](=O)[O-])O[N+](=O)[O-])[C@H](O)C[C@@H]1O (stereo partly drawn) [Comp. (12), (Z)-isopropyl 7-((1R,2R,3R,5S)-2-((3R,E)-3-(3-(2,3-bis(nitrooxy)propoxy)propanoyloxy)-4-(3-(trifluoromethyl)phenoxy)but-1-enyl)-3,5 dihydroxycyclopentyl)hept-5-enoate] | −7.1 ± 0.8 | 22 | −7.0 mmHg | – | – | – | −9.6 ± 1.0 | −2.9 ± 0.5 | 38 ± 3
O=C(O)CCC/C=C\C[C@@H]1[C@@H](/C=C/[C@H](COc2cccc(C(F)(F)F)c2)OC(=O)CCCC(CO[N+](=O)[O-])O[N+](=O)[O-])[C@H](O)C[C@@H]1O (stereo partly drawn) [Comp. (13), (Z)-7-((1R,2R,3R,5S)-2-((R,E)-3-(5,6-bis(nitrooxy)hexanoyloxy)-4-(3-(trifluoromethyl)phenoxy)but-1-enyl)-3,5-dihydroxycyclopentyl)hept-5-enoic acid] | −8.6 ± 1.2 | 31 | −8.5 mmHg | – | – | – | −6.9 ± 0.9 | −0.3 ± 1.0 | 39 ± 3
CCNC(=O)CCC/C=C\C[C@@H]1[C@@H](/C=C/[C@H](CCc2ccccc2)OC(=O)CCCO[N+](=O)[O-])[C@H](O)C[C@@H]1O [Compound A-1, (1S,2E)-3-{(1R,2R,3 S,5R)-2-[(2Z)-7-(Ethylamino)-7-oxohept-2-en-1-yl]-3,5-dihydroxycyclopentyl}-1-(2-phenylethyl)prop-2-en-1-yl 4-(nitrooxy) butanoate, reference compound] | −0.06 ± 5.2 | 4 | Not effective | 0.03 ± 5.0 | 1.1 ± 2.8 | −1.9 ± 3.2 | – | – | 3 ± 9
CCNC(=O)CCC/C=C\C[C@@H]1[C@@H](/C=C/[C@H](CCc2ccccc2)OC(=O)CCCCCO[N+](=O)[O-])[C@H](O)C[C@@H]1O [Compound B-1, (1S,2E)-3-{(1R,2R,3S,5R)-2-[(2Z)-7-(Ethylamino)-7-oxohept-2-en-1-yl]-3,5-dihydroxycyclopentyl}-1-(2-phenylethyl)prop-2-en-1-yl 6-(nitrooxy) hexanoate, reference compound] | −3.9 ± 2.5 | 7 | −2.1 mmHg | −5.6 ± 2.8 | 5.3 ± 1.5 | −3.9 ± 1.9 | – | – | 10 ± 3
CC(C)OC(=O)CCC/C=C\C[C@@H]1[C@@H](/C=C/[C@@H](O)COc2cccc(C(F)(F)F)c2)[C@H](O)C[C@@H]1O [Fluprostenol isopropyl ester, reference compound] | −0.08 ± 1.2 | 3 | 0 mmHg | – | – | – | −2.0 ± 1.3 | −0.4 ± 0.9 | –
